Data as given in publication PMC3871601, “Potential Cooperations between Odorant-Binding Proteins of the Scarab Beetle Holotrichia oblita Faldermann (Coleoptera: Scarabaeidae)” (PLoS ONE, 2013).
Like-named read-outs stand apart in the source and are kept apart here.

Tests used:
[1] = target: HoblOBP3 (Holotrichia oblita, UniProt G9BWQ7); experiment: biochemical; assay type: binding
Description: (§1) N-phenyl-1-naphthylamine (1-NPN) was selected as a probe to measure the affinity of the 1-NPN fluorescent ligand to proteins. A 1-cm light path quartz cuvette was used, and the fluorescence spectra were recorded on a Lengguang 970 CRT spectrofluorimeter (Shanghai Jingmi, China) at room temperature in a right angle configuration. The parameter selection was such that the slit widths for both excitation and emission were 10 nm. 1-NPN was excited at 337 nm and the emission spectra were recorded between 350 and 550 nm. Spectra were recorded using high-speed scanning.
(§2) The 2 µM protein solution was dissolved in 50 mM Tris-HCl buffer with pH 7.4, and the ligands were dissolved in chromatographically pure methanol as a 1 mM stock solution. 1-NPN was dissolved in chromatographically pure methanol as a 1 mM stock solution.
(§3) To determine the dissociation constants, the intensity values corresponding to the maximum fluorescence emission were plotted against free ligand concentrations. Assuming that the protein was 100% active and that the stoichiometric ratio between the protein and ligand was 1:1 at saturation, the bound ligand was determined from the fluorescence intensity values. The curves were then linearized using Scatchard plots. The K1-NPN values were estimated using GraphPad Prism 5 Software by nonlinear regression for a unique binding site. The dissociation constants of the competitors (Ki) were calculated from the corresponding IC50 values using the following equation: Ki = [IC50]/1+[1-NPN]/K1-NPN. […] [1-NPN] represented the free concentration of 1-NPN, and K1-NPN represented the dissociation constant of the complex protein/1-NPN [76].

[2] = target: HoblOBP4 (Holotrichia oblita, UniProt G9BWQ8); experiment: biochemical; assay type: binding
HoblOBP4, sequence (G9BWQ8 entry or part of it): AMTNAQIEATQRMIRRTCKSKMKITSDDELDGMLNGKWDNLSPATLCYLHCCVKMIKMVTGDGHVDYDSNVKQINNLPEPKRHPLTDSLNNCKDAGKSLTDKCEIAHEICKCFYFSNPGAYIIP
Description: as §1, §2, §3

[3] = HoblOBP3, dash = IC50 exceeded 50 µM, read-out: IC50 (dash)
[4] = HoblOBP3, dash = ligand whose IC50 exceeded 50 µM, Ki not given, read-out: Ki (dash)
[5] = pH 7.4, HoblOBP3, at the ligand concentration 24 µM, protein and 1-NPN both 2 µM, read-out: Int (fluorescence intensity as percent of the initial fluorescence)
[6] = HoblOBP4, calculated from IC50 and K1-NPN, read-out: Ki
[7] = HoblOBP4, protein and 1-NPN both 2 µM, ligand titrated 2–50 µM, read-out: IC50 (concentration of ligand halving the initial fluorescence intensity)
[8] = pH 7.4, HoblOBP4, at the ligand concentration 24 µM, protein and 1-NPN both 2 µM, read-out: Int (fluorescence intensity as percent of the initial fluorescence)
[9] = HoblOBP4, dash = IC50 exceeded 50 µM, read-out: IC50 (dash)
[10] = HoblOBP4, dash = ligand whose IC50 exceeded 50 µM, Ki not given, read-out: Ki (dash)
[11] = pH 7.4, read-out: Int (fluorescence intensity as percent of the initial fluorescence)
[12] = HoblOBP3, at the ligand concentration 24 µM, protein and 1-NPN both 2 µM
[13] = HoblOBP4, at the ligand concentration 24 µM, protein and 1-NPN both 2 µM

HoblOBP3, sequence (G9BWQ7 entry or part of it): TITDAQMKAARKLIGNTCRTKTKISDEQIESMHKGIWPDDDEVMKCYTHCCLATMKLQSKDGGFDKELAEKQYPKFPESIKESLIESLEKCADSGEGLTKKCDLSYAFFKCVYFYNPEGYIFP

Compound	IC50 [1, 3]	Ki [1, 4]	activity at 24 µM [1, 5]	Ki [2, 6]	IC50 [2, 7]	activity at 24 µM [2, 8]	IC50 [2, 9]	Ki [2, 10]	IC50 [1]	Ki [1]	activity at 24 µM [1, 11]	IC50 [2]	Ki [2]	activity at 24 µM [2, 11]	Int (fluorescence intensity as percent of the initial fluorescence) [1, 12]	Int (fluorescence intensity as percent of the initial fluorescence) [2, 13]
CCCCCCCCCO [1-Nonanol]	> 50 µM	> 50 µM	71%	11.8 µM	16 µM	46%	–	–	–	–	–	–	–	–	–	–
OCCc1ccccc1 [Phenethyl alcohol]	> 50 µM	> 50 µM	66%	20.6 µM	28 µM	52%	–	–	–	–	–	–	–	–	–	–
CCCCCCCCC [Nonane]	> 50 µM	> 50 µM	–	–	–	–	> 50 µM	> 50 µM	–	–	–	–	–	–	–	–
CC(=O)/C=C/C1C(C)=CCCC1(C)C (stereo not drawn) [α-Ionone]	–	–	–	–	–	–	–	–	16 µM	10.4 µM	41%	19 µM	14 µM	45%	–	–
CCCCCCCCCC=O [1-Decanal]	> 50 µM	> 50 µM	86%	–	–	68%	> 50 µM	> 50 µM	–	–	–	–	–	–	–	–
O=C1C=CCCC1 [2-Cyclohexen-1-one]	> 50 µM	> 50 µM	70%	16.9 µM	23 µM	49%	–	–	–	–	–	–	–	–	–	–
CCC/C=C/C=O [trans-2-Hexenal]	–	–	–	–	–	–	–	–	> 50 µM	> 50 µM	74%	11 µM	8.1 µM	39%	–	–
CCC/C=C\CO [cis-2-Hexen-1-ol]	–	–	70%	–	–	42%	–	–	> 50 µM	> 50 µM	–	14 µM	10.3 µM	–	–	–
CC(C)[C@@H]1CC[C@@H](C)C[C@H]1OC(=O)c1ccccc1O [Menthyl salicylate]	> 50 µM	> 50 µM	–	–	–	–	> 50 µM	> 50 µM	–	–	–	–	–	–	75%	54%
CCCCCC=O [1-Hexanal]	–	–	68%	–	–	42%	–	–	> 50 µM	> 50 µM	–	15 µM	11 µM	–	–	–
CCCCCCCO [1-Heptanol]	> 50 µM	> 50 µM	70%	15.4 µM	21 µM	46%	–	–	–	–	–	–	–	–	–	–
C=C1CC/C=C(\C)CC[C@@H]2[C@@H]1CC2(C)C [β-Caryophyllene]	–	–	–	–	–	–	–	–	> 50 µM	> 50 µM	–	> 50 µM	> 50 µM	–	–	–
CC/C=C\CCOC(C)=O [(Z)-3-Hexenyl acetate]	> 50 µM	> 50 µM	78%	29.4 µM	40 µM	56%	–	–	–	–	–	–	–	–	–	–
CC/C=C\CCO [cis-3-Hexen-1-ol]	–	–	–	–	–	–	–	–	> 50 µM	> 50 µM	81%	17 µM	12.5 µM	46%	–	–
CC(C)=CCC/C(C)=C/CO [Geraniol]	–	–	–	–	–	–	–	–	> 50 µM	> 50 µM	79%	16 µM	11.8 µM	44%	–	–
C=CC(O)CCCCC (stereo not drawn) [1-Octen-3-ol]	> 50 µM	> 50 µM	86%	29.4 µM	40 µM	54%	–	–	–	–	–	–	–	–	–	–
CCCCCCO [1-Hexanol]	> 50 µM	> 50 µM	91%	8.8 µM	12 µM	45%	–	–	–	–	–	–	–	–	–	–
CCCCCCCCCC [Decane]	> 50 µM	> 50 µM	–	–	–	–	> 50 µM	> 50 µM	–	–	–	–	–	–	–	–
CCCOC(=O)c1ccccc1 [Propyl benzoate]	> 50 µM	> 50 µM	81%	14.7 µM	20 µM	48%	–	–	–	–	–	–	–	–	–	–
CCCCCCC [Heptane]	–	–	63%	–	–	43%	–	–	> 50 µM	> 50 µM	–	16 µM	11.8 µM	–	–	–
O=Cc1ccccc1 [Benzaldehyde]	–	–	–	–	–	–	–	–	> 50 µM	> 50 µM	68%	17 µM	12.5 µM	44%	–	–
CC(=O)CCC=C(C)C [6-Methyl-5-hepten-2-one]	–	–	–	–	–	–	–	–	> 50 µM	> 50 µM	78%	32 µM	23.5 µM	52%	–	–
C=CC(=C)CCC=C(C)C [Myrcene]	> 50 µM	> 50 µM	74%	–	–	56%	> 50 µM	> 50 µM	–	–	–	–	–	–	–	–
CCCCCCOC(=O)c1ccccc1 [Hexyl benzoate]	> 50 µM	> 50 µM	53%	2.9 µM	4 µM	36%	–	–	–	–	–	–	–	–	–	–
CCCCCCCC [Octane]	> 50 µM	> 50 µM	–	18.4 µM	25 µM	–	–	–	–	–	70%	–	–	51%	–	–
C=C(C)C1CC=C(C)CC1 (stereo not drawn) [Limonene]	–	–	56%	–	–	52%	–	–	> 50 µM	> 50 µM	–	> 50 µM	> 50 µM	–	–	–
CCCCOC(=O)c1ccccc1 [Butyl Benzoate]	> 50 µM	> 50 µM	69%	8.1 µM	11 µM	40%	–	–	–	–	–	–	–	–	–	–
CCOC(=O)[C@@H]1CCCN1 [L-Proline ethyl ester]	> 50 µM	> 50 µM	–	14.7 µM	20 µM	–	–	–	–	–	–	–	–	–	70%	47%
CC1=CCC(O)(C(C)C)CC1 (stereo not drawn) [Terpinen-4-ol]	–	–	–	–	–	–	–	–	> 50 µM	> 50 µM	75%	21 µM	15.4 µM	48%	–	–
